Experiment [1] addresses Kelch domain of human KEAP1 (321-624 aa) (Homo sapiens (Human), UniProt Q14145). The experiment is described as follows: KEAP1 KELCH ThermoFluor binding assay.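 Further: Ligand-induced melting temperature shift of E. coli-expressed KEAP1 Kelch protein, Kd estimated from concentration-response curves of ΔTm.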 The conditions noted are these: KEAP Kelch […], 1,8-ANS, pH 7.0, average of results obtained, read-out: Tf Kd. A general note: DSF heats the sample and reads unfolding from a dye or from intrinsic fluorescence.
In experiment [2] the test system is Glo-Response ARE-luc2P HEK293 cell line. The experiment is described as follows: ARE luciferase reporter cell-based assay.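 Further: luciferase signal tracks Nrf2 activation of the ARE once compounds disrupt KEAP1-Nrf2 binding, read with One-Glo reagent, DMSO serving as low control.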 The conditions noted are these: average of results obtained. Background: A reporter such as luciferase makes a cellular process visible.

One may read the Kd as a measure of binding affinity in units of concentration. The term EC50 denotes the midpoint of the concentration-response curve. A high value points to a need for much substance.

Chain of Kelch domain of human KEAP1 (321-624 aa) (Q14145 321-624): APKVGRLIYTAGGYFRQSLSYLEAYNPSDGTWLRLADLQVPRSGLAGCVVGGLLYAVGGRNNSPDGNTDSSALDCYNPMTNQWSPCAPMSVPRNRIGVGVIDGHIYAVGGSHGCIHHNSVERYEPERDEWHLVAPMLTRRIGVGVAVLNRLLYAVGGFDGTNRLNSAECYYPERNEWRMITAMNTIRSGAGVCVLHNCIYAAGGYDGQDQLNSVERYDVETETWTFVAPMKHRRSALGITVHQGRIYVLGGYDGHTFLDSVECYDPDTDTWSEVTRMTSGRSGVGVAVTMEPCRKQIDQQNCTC

In the case of `CCn1nnc2c(C)c([C@@H](CC(=O)O)c3ccc(C)c(CN4C[C@@H]5CCCN5c5ncccc5S4(=O)=O)c3)ccc21` (single isomer, unassigned) [Example 156, (*S)-3-(3-(((S)-5,5-Dioxido-7a,8,9,10-tetrahydropyrido[2,3-f]pyrrolo[2,1-d][1,2,5]thiadiazepin-6(7H)-yl)methyl)-4-methylphenyl)-3-(1-ethyl-4-methyl-1H-benzo[d][1,2,3]triazol-5-yl)propanoic Acid], the Kd in experiment [1] amounted to 0.0021 µM. In experiment [2] (Homo sapiens, HEK293, 24 h), this molecule displayed an EC50 of 0.0036 µM.
On to `CCn1nnc2c(C)c([C@H](CC(=O)O)c3ccc(C)c(CN4C[C@@H]5CCCN5c5ncccc5S4(=O)=O)c3)ccc21` (single isomer, unassigned) [Example 157, (*R)-3-(3-(((S)-5,5-Dioxido-7a,8,9,10-tetrahydropyrido[2,3-f]pyrrolo[2,1-d][1,2,5]thiadiazepin-6(7H)-yl)methyl)-4-methylphenyl)-3-(1-ethyl-4-methyl-1H-benzo[d][1,2,3]triazol-5-yl)propanoic Acid], for which the Kd in experiment [1] is around 0.0032 µM. Further, the EC50 in experiment [2] (Homo sapiens, HEK293, 24 h) worked out at 0.062 µM.
For the molecule `Cc1ccc([C@H](CC(=O)O)c2ccn3c(C)nnc3c2)cc1CN1C[C@H]2CCCN2c2ncccc2S1(=O)=O` (single isomer, unassigned) [Example 163, (*S)-3-(3-(((R)-5,5-Dioxido-7a,8,9,10-tetrahydropyrido[2,3-f]pyrrolo[2,1-d][1,2,5]thiadiazepin-6(7H)-yl)methyl)-4-methylphenyl)-3-(3-methyl-[1,2,4]triazolo[4,3-a]pyridin-7-yl)propanoic Acid], the Kd in experiment [1] is below 0.001 µM. In experiment [2] (Homo sapiens, HEK293, 24 h), this molecule returned an EC50 of 2.75 µM.
In the same order, the values of `Cc1ccc([C@@H](CC(=O)O)c2ccn3c(C)nnc3c2)cc1CN1C[C@H]2CCCN2c2ncccc2S1(=O)=O` (single isomer, unassigned) [Example 164, (*R)-3-(3-(((R)-5,5-Dioxido-7a,8,9,10-tetrahydropyrido[2,3-f]pyrrolo[2,1-d][1,2,5]thiadiazepin-6(7H)-yl)methyl)-4-methylphenyl)-3-(3-methyl-[1,2,4]triazolo[4,3-a]pyridin-7-yl)propanoic Acid] are 0.0023 µM and 11.2 µM.
In the case of `Cc1ccc([C@H](CC(=O)O)c2ccn3c(C)nnc3c2)cc1CN1C[C@H]2CCCN2c2ccccc2S1(=O)=O` (single isomer, unassigned) [Example 165, (*S)-3-(3-(((R)-5,5-Dioxido-7a,8,9,10-tetrahydrobenzo[f]pyrrolo[2,1-d][1,2,5]thiadiazepin-6(7H)-yl)methyl)-4-methylphenyl)-3-(3-methyl-[1,2,4]triazolo[4,3-a]pyridin-7-yl)propanoic Acid], in experiment [1], the dissociation constant Kd was below 0.001 µM. In addition, it took 1.49 µM to reach a half-maximal effect in experiment [2] (Homo sapiens, HEK293, 24 h) (EC50).
With `Cc1ccc([C@@H](CC(=O)O)c2ccn3c(C)nnc3c2)cc1CN1C[C@H]2CCCN2c2ccccc2S1(=O)=O` (single isomer, unassigned) [Example 166, (*R)-3-(3-(((R)-5,5-Dioxido-7a,8,9,10-tetrahydrobenzo[f]pyrrolo[2,1-d][1,2,5]thiadiazepin-6(7H)-yl)methyl)-4-methylphenyl)-3-(3-methyl-[1,2,4]triazolo[4,3-a]pyridin-7-yl)propanoic Acid], in experiment [1], the Kd was below 0.001 µM. Besides, a half-maximal effect in experiment [2] (Homo sapiens, HEK293, 24 h) (EC50) was put at 7.02 µM.
Regarding `Cc1ccc([C@H](CC(=O)O)c2ccn3c(C4CC4)nnc3c2C)cc1CN1C[C@H]2CCCN2c2ncccc2S1(=O)=O` (single isomer, unassigned) [Example 168, (*S)-3-(3-Cyclopropyl-8-methyl-[1,2,4]triazolo[4,3-a]pyridin-7-yl)-3-(3-(((R)-5,5-dioxido-7a,8,9,10-tetrahydropyrido[2,3-f]pyrrolo[2,1-d][1,2,5]thiadiazepin-6(7H)-yl)methyl)-4-methylphenyl)propanoic Acid], in experiment [1], the Kd is below 0.001 µM. Further, the EC50 in experiment [2] (Homo sapiens, HEK293, 24 h) came to 0.48 µM.
For the molecule `Cc1ccc([C@@H](CC(=O)O)c2ccn3c(C4CC4)nnc3c2C)cc1CN1C[C@H]2CCCN2c2ncccc2S1(=O)=O` (single isomer, unassigned) [Example 169, (*R)-3-(3-Cyclopropyl-8-methyl-[1,2,4]triazolo[4,3-a]pyridin-7-yl)-3-(3-(((R)-5,5-dioxido-7a,8,9,10-tetrahydropyrido[2,3-f]pyrrolo[2,1-d][1,2,5]thiadiazepin-6(7H)-yl)methyl)-4-methylphenyl)propanoic Acid], in experiment [1], the Kd worked out at 0.0012 µM. This molecule showed an EC50 in experiment [2] (Homo sapiens, HEK293, 24 h) of 5.91 µM.
For the molecule `Cc1ccc([C@H](CC(=O)O)c2ccc3c(nnn3CC3CC3)c2C(F)F)cc1CN1C[C@H]2CCCCN2c2ncccc2S1(=O)=O` (single isomer, unassigned) [Example 170, (*S)-3-(1-(Cyclopropylmethyl)-4-(difluoromethyl)-1H-benzo[d][1,2,3]triazol-5-yl)-3-(3-(((*R)-5,5-dioxido-7,7a,8,9,10,11-hexahydro-6H-dipyrido[2,1-d:2′,3′-f][1,2,5]thiadiazepin-6-yl)methyl)-4-methylphenyl)propanoic Acid], the Kd in experiment [1] was below 0.001 µM. Moreover, in experiment [2] (Homo sapiens, HEK293, 24 h), the EC50 stood at 0.11 µM.
Regarding `Cc1ccc([C@@H](CC(=O)O)c2ccc3c(nnn3CC3CC3)c2C(F)F)cc1CN1C[C@H]2CCCCN2c2ncccc2S1(=O)=O` (single isomer, unassigned) [Example 171, (*R)-3-(1-(Cyclopropylmethyl)-4-(difluoromethyl)-1H-benzo[d][1,2,3]triazol-5-yl)-3-(3-(((*R)-5,5-dioxido-7,7a,8,9,10,11-hexahydro-6H-dipyrido[2,1-d:2′,3′-f][1,2,5]thiadiazepin-6-yl)methyl)-4-methylphenyl)propanoic Acid], in experiment [1], the dissociation constant (Kd) was below 0.001 µM. It took 0.088 µM to reach a half-maximal effect in experiment [2] (24 hours) (EC50).
Turning to `Cc1ccc([C@H](CC(=O)O)c2ccc3c(nnn3CC3CC3)c2C(F)F)cc1CN1C[C@@H]2CCCCN2c2ncccc2S1(=O)=O` (single isomer, unassigned) [Example 172, (*S)-3-(1-(Cyclopropylmethyl)-4-(difluoromethyl)-1H-benzo[d][1,2,3]triazol-5-yl)-3-(3-(((*S)-5,5-dioxido-7,7a,8,9,10,11-hexahydro-6H-dipyrido[2,1-d:2′,3′-f][1,2,5]thiadiazepin-6-yl)methyl)-4-methylphenyl)propanoic Acid], the Kd in experiment [1] was below 0.001 µM. Besides, in experiment [2] (Homo sapiens, HEK293, 24 h), the EC50 was found to be 0.019 µM.
As to `Cc1ccc([C@@H](CC(=O)O)c2ccc3c(nnn3CC3CC3)c2C(F)F)cc1CN1C[C@H]2CCCCN2c2ncccc2S1(=O)=O` (single isomer, unassigned) [Example 173, (*R)-3-(1-(Cyclopropylmethyl)-4-(difluoromethyl)-1H-benzo[d][1,2,3]triazol-5-yl)-3-(3-(((R)-5,5-dioxido-7,7a,8,9,10,11-hexahydro-6H-dipyrido[2,1-d:2′,3′-f][1,2,5]thiadiazepin-6-yl)methyl)-4-methylphenyl)propanoic Acid], the Kd in experiment [1] is 0.004 µM. This molecule also returned an EC50 in experiment [2] (24 hours) of 0.54 µM.
With `CC[C@@H]1CN(Cc2nc([C@@H](CC(=O)O)c3ccc4c(nnn4C4CC4)c3C)ccc2C)S(=O)(=O)c2cccnc2O1` (single isomer, unassigned) [Example 175, (*S)-3-(1-Cyclopropyl-4-methyl-1H-benzo[d][1,2,3]triazol-5-yl)-3-(6-(((R)-4-ethyl-1,1-dioxido-3,4-dihydro-2H-pyrido[2,3-b][1,4,5]oxathiazepin-2-yl)methyl)-5-methylpyridin-2-yl)propanoic Acid], in experiment [1], the Kd was below 0.001 µM. In experiment [2] (Homo sapiens, HEK293, 24 h), this molecule displayed a half-maximal effective concentration (EC50) of 0.0053 µM.
